Measured values: US20200407717A1, “METHODS OF MODULATING ANTISENSE ACTIVITY” (Ionis Pharmaceuticals, Inc., priority 2018, published 2020)
e = 2'-O-(2-methoxyethyl) (MOE); d = 2'-deoxy (DNA)

System: Malat1 RNA
Test: Antisense activity by RT-qPCR, Malat1, A431 cells
Type: cell-based
Protocol: A431 cells were grown at 10,000 cells per well and pre-treated with a variety of growth factors to determine if the addition of exogenous growth factors affects antisense activity or uptake of modified antisense oligonucleotides in a cell. The growth factors used were EGF, insulin growth factor (IGF), transforming growth factor (TGF), […] (VEGF), hepatocyte growth factor (HGF), platelet growth factor (PGF) and fibroblasts growth factor (FGF). To test antisense activity, cells were treated for 4 hours with a growth factor or vehicle alone, and then treated with compound no. 25690 (complementary to Drosha), compound no. 395254 (complementary to Malat1), or vehicle alone. RNA was isolated from the cells and Drosha or Malat1 RNA levels were measured by RT-qPCR. Human primer probe set 13816 (forward sequence […], designated herein as SEQ ID NO: 3; reverse sequence […], designated herein as SEQ ID NO: 4; probe sequence […], designated herein as SEQ ID NO: 5) was used to measure Drosha mRNA levels and primer probe set RTS2736 (forward sequence […], designated herein as SEQ ID NO: 6; reverse sequence […], designated herein as SEQ ID NO: 7; probe sequence TGCCACATCGCCACCCCGT, designated herein as SEQ ID NO: 8) was used to measure Malat1 RNA levels. Drosha and Malat1 RNA levels were normalized to total RNA content, as measured by RIBOGREEN®. Results are presented in the tables below as normalized RNA levels, relative to untreated control cells.
A431 cells were treated with EGF or TGF at 200 ng/mL in the presence or absence of 1 μM of the EGFR tyrosine kinase inhibitor PD174265. The cells were then treated with compound no. 25690 or compound no. 395254 as in Example 8. Total RNA was isolated and analyzed by RT-qPCR, as in Example 8.
Following siRNA treatment, cells were treated with compound no. 25690 or compound no. 395254 in the presence or absence of EGF. 16 hours after treatment with a PS-ASO with or without EGF, cells were harvested, and RNA levels were analyzed via RT-qPCR as in Example 8.

Which results are given for “GGCATATGCAGATAATGTTC (sugars from the 5' end e5 d10 e5, all phosphorothioate, methylation of C not given here) [compound 395254]”?
Malat1 RNA (% Control) (125 nM, EGFR siRNA-1): 26.5 % Control; Malat1 RNA (% Control) (125 nM, EGFR siRNA-2): 26.6 % Control; Malat1 RNA (% Control) (125 nM, EGFR siRNA-2 + EGF): 55.2 % Control; Malat1 RNA (% Control) (125 nM, EGFR siRNA-2, Table 27): 53.1 % Control; Malat1 RNA (% Control) (125 nM, TGF): 74.4 % Control; Malat1 RNA (% Control) (125 nM, TGF+PD174265): 47.0 % Control; Malat1 RNA (% Control) (125 nM, TGF, Table 21): 33.1 % Control; Malat1 RNA (% Control) (250 nM, Control): 74.0 % Control; Malat1 RNA (% Control) (250 nM, Control Luciferase siRNA): 16.3 % Control; Malat1 RNA (% Control) (250 nM, Control Luciferase siRNA, Table 27): 27.6 % Control; Malat1 RNA (% Control) (250 nM, Control luciferase + EGF): 24.9 % Control; Malat1 RNA (% Control) (250 nM, Control, Table 21): 37.6 % Control; Malat1 RNA (% Control) (250 nM, EGF): 43.6 % Control; Malat1 RNA (% Control) (250 nM, EGFR siRNA-1): 19.7 % Control; Malat1 RNA (% Control) (250 nM, EGFR siRNA-2): 21.5 % Control; Malat1 RNA (% Control) (250 nM, EGFR siRNA-2 + EGF): 34.0 % Control; Malat1 RNA (% Control) (250 nM, EGFR siRNA-2, Table 27): 29.7 % Control; Malat1 RNA (% Control) (250 nM, TGF): 29.4 % Control; Malat1 RNA (% Control) (250 nM, TGF+PD174265): 34.9 % Control; Malat1 RNA (% Control) (250 nM, TGF, Table 21): 19.7 % Control; Malat1 RNA (% Control) (500 nM, Control): 44.5 % Control; Malat1 RNA (% Control) (500 nM, Control Luciferase siRNA): 11.9 % Control; Malat1 RNA (% Control) (500 nM, Control Luciferase siRNA, Table 27): 18.9 % Control; Malat1 RNA (% Control) (500 nM, Control luciferase + EGF): 17.1 % Control; Malat1 RNA (% Control) (500 nM, Control, Table 21): 28.9 % Control; Malat1 RNA (% Control) (500 nM, EGF): 26.1 % Control; Malat1 RNA (% Control) (500 nM, EGFR siRNA-1): 16.9 % Control; Malat1 RNA (% Control) (500 nM, EGFR siRNA-2): 15.1 % Control; Malat1 RNA (% Control) (500 nM, EGFR siRNA-2 + EGF): 24.6 % Control; Malat1 RNA (% Control) (500 nM, EGFR siRNA-2, Table 27): 23.4 % Control; Malat1 RNA (% Control) (500 nM, TGF): 27.9 % Control; Malat1 RNA (% Control) (500 nM, TGF+PD174265): 27.1 % Control; Malat1 RNA (% Control) (500 nM, TGF, Table 21): 13.5 % Control; Malat1 RNA (% Control) (1000 nM, Control): 27.0 % Control; Malat1 RNA (% Control) (1000 nM, Control Luciferase siRNA): 7.9 % Control; Malat1 RNA (% Control) (1000 nM, Control Luciferase siRNA, Table 27): 18.2 % Control; Malat1 RNA (% Control) (1000 nM, Control luciferase + EGF): 15.2 % Control; Malat1 RNA (% Control) (1000 nM, Control, Table 21): 15.2 % Control; Malat1 RNA (% Control) (1000 nM, EGF): 15.1 % Control; Malat1 RNA (% Control) (1000 nM, EGFR siRNA-1): 11.3 % Control; Malat1 RNA (% Control) (1000 nM, EGFR siRNA-2): 12.7 % Control; Malat1 RNA (% Control) (1000 nM, EGFR siRNA-2 + EGF): 21.4 % Control; Malat1 RNA (% Control) (1000 nM, EGFR siRNA-2, Table 27): 17.2 % Control; Malat1 RNA (% Control) (1000 nM, TGF): 14.2 % Control; Malat1 RNA (% Control) (1000 nM, TGF+PD174265): 21.2 % Control; Malat1 RNA (% Control) (1000 nM, TGF, Table 21): 7.2 % Control; Malat1 RNA (% Control) (2000 nM, Control): 24.1 % Control; Malat1 RNA (% Control) (2000 nM, Control Luciferase siRNA): 7.6 % Control; Malat1 RNA (% Control) (2000 nM, Control Luciferase siRNA, Table 27): 15.2 % Control; Malat1 RNA (% Control) (2000 nM, Control luciferase + EGF): 10.2 % Control; Malat1 RNA (% Control) (2000 nM, Control, Table 21): 11.2 % Control; Malat1 RNA (% Control) (2000 nM, EGF): 9.9 % Control; Malat1 RNA (% Control) (2000 nM, EGFR siRNA-1): 10.2 % Control; Malat1 RNA (% Control) (2000 nM, EGFR siRNA-2): 11.0 % Control; Malat1 RNA (% Control) (2000 nM, EGFR siRNA-2 + EGF): 18.3 % Control; Malat1 RNA (% Control) (2000 nM, EGFR siRNA-2, Table 27): 15.2 % Control; Malat1 RNA (% Control) (2000 nM, TGF): 9.5 % Control; Malat1 RNA (% Control) (2000 nM, TGF+PD174265): 10.2 % Control; Malat1 RNA (% Control) (2000 nM, TGF, Table 21): 5.2 % Control; Malat1 RNA (% Control) (4000 nM, Control): 17.9 % Control; Malat1 RNA (% Control) (4000 nM, Control Luciferase siRNA): 1.3 % Control; Malat1 RNA (% Control) (4000 nM, Control Luciferase siRNA, Table 27): 11.2 % Control; Malat1 RNA (% Control) (4000 nM, Control luciferase + EGF): 7.2 % Control; Malat1 RNA (% Control) (4000 nM, Control, Table 21): 7.2 % Control; Malat1 RNA (% Control) (4000 nM, EGF): 10.3 % Control; Malat1 RNA (% Control) (4000 nM, EGFR siRNA-1): 7.8 % Control; Malat1 RNA (% Control) (4000 nM, EGFR siRNA-2): 11.1 % Control; Malat1 RNA (% Control) (4000 nM, EGFR siRNA-2 + EGF): 17.2 % Control; Malat1 RNA (% Control) (4000 nM, EGFR siRNA-2, Table 27): 15.2 % Control; Malat1 RNA (% Control) (4000 nM, TGF): 11.6 % Control; Malat1 RNA (% Control) (4000 nM, TGF+PD174265): 7.2 % Control; Malat1 RNA (% Control) (4000 nM, TGF, Table 21): 5.7 % Control; IC50 (Control (no growth factor), Table 16): 36 ± 3.2 nM; IC50 (Control Luciferase siRNA, Table 25): 46 ± 5.3 nM; IC50 (Control Luciferase siRNA, Table 27): 49 ± 6.3 nM; IC50 (Control luciferase + EGF, Table 27): 26 ± 2.4 nM; IC50 (Control, Table 21): 50 ± 7 nM; IC50 (EGF pre-treatment 4 hours, Table 16): 15 ± 3 nM; IC50 (EGFR siRNA-1, Table 25): 86 ± 9.3 nM; IC50 (EGFR siRNA-2 + EGF, Table 27): 87 ± 4.2 nM; IC50 (EGFR siRNA-2, Table 25): 100 ± 9.7 nM; IC50 (EGFR siRNA-2, Table 27): 89 ± 5.9 nM; IC50 (TGF 200 ng/mL + 1 μM PD174265, Table 21): 56 ± 8.1 nM; IC50 (TGF 200 ng/mL, Table 21): 21 ± 4 nM; IC50 (TGF pre-treatment 4 hours, Table 16): 13 ± 2.1 nM; half maximal inhibitory concentration, Malat1 (cells treated with IGF, FGF, HGF, VEGF or PGF relative to PS-ASO alone (data not shown)): unchanged
